Test results from PubChem BioAssay AID2060492 (Molecular Pharmacology Branch, DTP, NCI, 2025).
Values belong to the molecule of their own block, whether it stands above or below them.

Tested on: 695427-040-R-J1-PDC complex spheroids, viability percent T/C
Experiment: Anticancer human tumor 695427-040-R-J1-PDC patient-derived colon adenocarcinoma cell line growth inhibition [GQUAD]
Conditions: for IC50: curve of first compound; for viability, T/C: stronger effect = lower value
Method in brief: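 Multi-cell-type spheroids of tumor cells with HUVEC and mesenchymal stem cells, treated with drug combinations. Concentrations descend in half-log steps from near clinical Cmax, or from 10 microM where Cmax is unknown; viability read-out.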

[1] = second compound 0.0316 µM, first compound 0.0316 µM
[2] = second compound 0.0316 µM, first compound 0.1 µM
[3] = second compound 0.0316 µM, first compound 0.316 µM
[4] = second compound 0.0316 µM, first compound 1 µM
[5] = second compound 0.0316 µM, first compound 3.16 µM
[6] = second compound 0.0316 µM, first compound 10 µM
[7] = second compound 0.1 µM, first compound 0.0316 µM
[8] = second compound 0.1 µM, first compound 0.1 µM
[9] = second compound 0.1 µM, first compound 0.316 µM
[10] = second compound 0.1 µM, first compound 1 µM
[11] = second compound 0.1 µM, first compound 3.16 µM
[12] = second compound 0.1 µM, first compound 10 µM
[13] = second compound 0.316 µM, first compound 0.0316 µM
[14] = second compound 0.316 µM, first compound 0.1 µM
[15] = second compound 0.316 µM, first compound 0.316 µM
[16] = second compound 0.316 µM, first compound 1 µM
[17] = second compound 0.316 µM, first compound 3.16 µM
[18] = second compound 0.316 µM, first compound 10 µM
[19] = second compound 1 µM, first compound 0.0316 µM
[20] = second compound 1 µM, first compound 0.1 µM
[21] = second compound 1 µM, first compound 0.316 µM
[22] = second compound 1 µM, first compound 1 µM
[23] = second compound 1 µM, first compound 3.16 µM
[24] = second compound 1 µM, first compound 10 µM
[25] = second compound 3.16 µM, first compound 0.0316 µM
[26] = second compound 3.16 µM, first compound 0.1 µM
[27] = second compound 3.16 µM, first compound 0.316 µM
[28] = second compound 3.16 µM, first compound 1 µM
[29] = second compound 3.16 µM, first compound 3.16 µM
[30] = second compound 3.16 µM, first compound 10 µM
[31] = second compound 10 µM, first compound 0.0316 µM
[32] = second compound 10 µM, first compound 0.1 µM
[33] = second compound 10 µM, first compound 0.316 µM
[34] = second compound 10 µM, first compound 1 µM
[35] = second compound 10 µM, first compound 3.16 µM
[36] = second compound 10 µM, first compound 10 µM
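Note: spheroids exposed to compounds for seven days before readout.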

SMILES: O=c1[nH]cc(F)c(=O)[nH]1 + Cc1[nH]c2ccc(F)cc2c1-c1nc2c3cccnc3c3ncccc3c2[nH]1
- IC50 (second compound 0.0316 µM): > 10 µM
- IC50 (second compound 0.1 µM): > 10 µM
- IC50 (second compound 0.316 µM): > 10 µM
- IC50 (second compound 1 µM): > 10 µM
- IC50 (second compound 3.16 µM): > 10 µM
- IC50 (second compound 10 µM): > 10 µM
- viability, T/C [1]: 102%
- viability, T/C [2]: 91.1%
- viability, T/C [3]: 99.1%
- viability, T/C [4]: 92.3%
- viability, T/C [5]: 89%
- viability, T/C [6]: 108%
- viability, T/C [7]: 98.4%
- viability, T/C [8]: 77.3%
- viability, T/C [9]: 92.2%
- viability, T/C [10]: 82.2%
- viability, T/C [11]: 94.8%
- viability, T/C [12]: 98.6%
- viability, T/C [13]: 104%
- viability, T/C [14]: 74.1%
- viability, T/C [15]: 89.1%
- viability, T/C [16]: 62.4%
- viability, T/C [17]: 98.8%
- viability, T/C [18]: 87%
- viability, T/C [19]: 84.5%
- viability, T/C [20]: 91.8%
- viability, T/C [21]: 76.2%
- viability, T/C [22]: 82.3%
- viability, T/C [23]: 88.2%
- viability, T/C [24]: 89.2%
- viability, T/C [25]: 82.1%
- viability, T/C [26]: 81.7%
- viability, T/C [27]: 83.7%
- viability, T/C [28]: 69.8%
- viability, T/C [29]: 74.1%
- viability, T/C [30]: 66.3%
- viability, T/C [31]: 59.8%
- viability, T/C [32]: 73%
- viability, T/C [33]: 75.8%
- viability, T/C [34]: 75.9%
- viability, T/C [35]: 74.1%
- viability, T/C [36]: 78.3%

- IC50 (second compound 0.0316 µM): 2.95 µM
- IC50 (second compound 0.1 µM): 3.68 µM
- IC50 (second compound 0.316 µM): 2.08 µM
- IC50 (second compound 1 µM): 2.33 µM
- IC50 (second compound 3.16 µM): < 0.0316 µM
- IC50 (second compound 10 µM): < 0.0316 µM
SMILES: COc1ccc([C@@H](O)c2cc(-c3ncnc4cc(N5CCOCC5)ccc34)c(F)cc2Cl)nn1 + Cc1cnc(CNC(=O)c2c(=O)c3ccc(N4CCCN(C)CC4)nc3n3c2sc2ccccc23)cn1
- viability, T/C [1]: 93.2%
- viability, T/C [2]: 101%
- viability, T/C [3]: 85.6%
- viability, T/C [4]: 64.3%
- viability, T/C [5]: 53.1%
- viability, T/C [6]: 31.2%
- viability, T/C [7]: 91.5%
- viability, T/C [8]: 103%
- viability, T/C [9]: 80.5%
- viability, T/C [10]: 66.5%
- viability, T/C [11]: 55.7%
- viability, T/C [12]: 36.3%
- viability, T/C [13]: 72.6%
- viability, T/C [14]: 79.3%
- viability, T/C [15]: 69.8%
- viability, T/C [16]: 56.1%
- viability, T/C [17]: 47.5%
- viability, T/C [18]: 35.2%
- viability, T/C [19]: 58%
- viability, T/C [20]: 69.4%
- viability, T/C [21]: 60.9%
- viability, T/C [22]: 52.2%
- viability, T/C [23]: 49.6%
- viability, T/C [24]: 32%
- viability, T/C [25]: 41.5%
- viability, T/C [26]: 46.3%
- viability, T/C [27]: 42.7%
- viability, T/C [28]: 46%
- viability, T/C [29]: 39.5%
- viability, T/C [30]: 21.9%
- viability, T/C [31]: 36.8%
- viability, T/C [32]: 39.6%
- viability, T/C [33]: 36.3%
- viability, T/C [34]: 33.6%
- viability, T/C [35]: 20.2%
- viability, T/C [36]: 5.79%
